Legend:
[1] = DRUGMATRIX: Sigma2 radioligand binding (ligand: [3H] Ifenprodil); assay type: cell membranes, Rattus norvegicus, Wistar, Brain, Membrane; details: Not Active = under 50% inhibition at 10 µM
[2] = DRUGMATRIX: Sodium/nucleoside co-transporter radioligand binding (ligand: nitrobenzylthioinosine); assay type: cell membranes, Cavia porcellus, Dunkin-Hartley, Cerebral cortex, Membrane; details: Not Active = under 50% inhibition at 10 µM
Vasopressin V1a receptor = Vasopressin V1a receptor (Homo sapiens, UniProt P37288); assay type: cell membranes, Membrane; details: hek293; note: in other assays of this panel Not Active means under 50% inhibition at 10 µM
Sequence of Vasopressin V1a receptor (P37288 whole entry): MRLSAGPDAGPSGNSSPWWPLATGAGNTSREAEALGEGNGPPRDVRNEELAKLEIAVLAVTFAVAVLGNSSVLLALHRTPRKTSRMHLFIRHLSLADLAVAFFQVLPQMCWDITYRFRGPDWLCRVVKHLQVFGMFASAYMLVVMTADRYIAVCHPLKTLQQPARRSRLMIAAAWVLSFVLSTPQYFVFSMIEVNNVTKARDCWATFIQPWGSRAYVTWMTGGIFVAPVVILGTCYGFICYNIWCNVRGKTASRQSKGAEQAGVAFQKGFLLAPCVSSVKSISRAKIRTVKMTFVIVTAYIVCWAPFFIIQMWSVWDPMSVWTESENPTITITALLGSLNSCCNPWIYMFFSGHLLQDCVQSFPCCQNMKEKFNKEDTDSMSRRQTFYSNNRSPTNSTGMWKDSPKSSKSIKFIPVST

[3] = DRUGMATRIX: Glutamate, Kainate radioligand binding (ligand: [3H] Kainic acid); assay type: cell membranes, Rattus norvegicus, Wistar, Brain, Membrane; details: Not Active = under 50% inhibition at 10 µM
Cytochrome P450 2D6 = Cytochrome P450 2D6 (Homo sapiens, UniProt P10635); details: bti-tn-5b1-4; note: in other assays of this panel Not Active means under 50% inhibition at 10 µM
Sequence of Cytochrome P450 2D6 (P10635 whole entry): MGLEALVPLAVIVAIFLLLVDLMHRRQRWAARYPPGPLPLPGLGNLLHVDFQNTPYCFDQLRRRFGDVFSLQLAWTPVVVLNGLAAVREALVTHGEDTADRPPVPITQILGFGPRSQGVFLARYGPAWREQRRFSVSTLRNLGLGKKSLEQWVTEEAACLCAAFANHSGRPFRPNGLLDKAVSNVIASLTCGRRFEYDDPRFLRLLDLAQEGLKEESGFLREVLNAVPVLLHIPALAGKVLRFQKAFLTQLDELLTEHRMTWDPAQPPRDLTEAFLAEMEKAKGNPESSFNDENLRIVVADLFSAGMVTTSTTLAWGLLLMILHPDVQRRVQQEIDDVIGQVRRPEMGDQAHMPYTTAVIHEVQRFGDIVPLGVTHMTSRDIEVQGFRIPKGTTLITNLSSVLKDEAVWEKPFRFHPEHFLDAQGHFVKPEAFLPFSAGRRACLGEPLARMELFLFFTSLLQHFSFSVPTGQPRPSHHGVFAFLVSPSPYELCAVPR

Nitric oxide synthase 1 = Nitric oxide synthase 1 (Rattus norvegicus, UniProt P29476); assay type: tissue-based, Cerebellum; note: in other assays of this panel Not Active means under 50% inhibition at 10 µM
Sequence of Nitric oxide synthase 1 (P29476 whole entry): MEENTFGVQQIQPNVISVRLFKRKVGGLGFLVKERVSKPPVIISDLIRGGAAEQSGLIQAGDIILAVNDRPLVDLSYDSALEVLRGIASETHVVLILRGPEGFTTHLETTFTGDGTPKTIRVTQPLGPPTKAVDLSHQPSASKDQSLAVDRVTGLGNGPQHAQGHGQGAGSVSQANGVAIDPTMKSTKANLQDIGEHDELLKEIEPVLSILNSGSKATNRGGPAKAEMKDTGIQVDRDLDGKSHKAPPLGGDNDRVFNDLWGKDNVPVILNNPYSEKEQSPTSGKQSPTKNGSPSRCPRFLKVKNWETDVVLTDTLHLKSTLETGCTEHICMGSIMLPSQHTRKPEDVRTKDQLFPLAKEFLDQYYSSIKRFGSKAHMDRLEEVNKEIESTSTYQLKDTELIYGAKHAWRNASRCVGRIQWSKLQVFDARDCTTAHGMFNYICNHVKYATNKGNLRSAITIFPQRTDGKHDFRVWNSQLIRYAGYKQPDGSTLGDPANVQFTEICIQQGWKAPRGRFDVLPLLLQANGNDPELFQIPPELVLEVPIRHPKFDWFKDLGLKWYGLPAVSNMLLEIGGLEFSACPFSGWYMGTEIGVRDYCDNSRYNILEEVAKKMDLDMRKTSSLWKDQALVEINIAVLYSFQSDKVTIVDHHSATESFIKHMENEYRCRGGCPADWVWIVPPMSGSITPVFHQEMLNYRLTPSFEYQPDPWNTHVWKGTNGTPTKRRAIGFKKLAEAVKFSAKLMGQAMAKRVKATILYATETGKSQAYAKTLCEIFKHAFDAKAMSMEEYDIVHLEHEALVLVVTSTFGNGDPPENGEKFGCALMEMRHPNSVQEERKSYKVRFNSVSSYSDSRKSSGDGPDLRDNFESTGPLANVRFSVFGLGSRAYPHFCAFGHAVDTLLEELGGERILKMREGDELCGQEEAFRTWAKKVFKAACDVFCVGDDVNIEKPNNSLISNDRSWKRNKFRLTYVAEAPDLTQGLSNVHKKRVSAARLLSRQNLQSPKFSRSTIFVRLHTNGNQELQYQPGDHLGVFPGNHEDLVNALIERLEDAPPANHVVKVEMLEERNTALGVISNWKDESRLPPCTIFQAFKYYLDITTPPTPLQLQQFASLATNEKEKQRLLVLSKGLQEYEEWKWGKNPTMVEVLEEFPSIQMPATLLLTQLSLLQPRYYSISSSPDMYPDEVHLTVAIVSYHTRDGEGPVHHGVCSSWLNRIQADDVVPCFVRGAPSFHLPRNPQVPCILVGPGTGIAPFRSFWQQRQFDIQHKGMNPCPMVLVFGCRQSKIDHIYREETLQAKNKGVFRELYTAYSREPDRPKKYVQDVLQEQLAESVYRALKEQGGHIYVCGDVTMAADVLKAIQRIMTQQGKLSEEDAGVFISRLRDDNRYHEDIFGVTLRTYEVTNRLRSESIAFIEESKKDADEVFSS

[4] = DRUGMATRIX: Platelet-Derived Growth Factor (PDGF) radioligand binding (ligand: [125I] PDGF); assay type: cell-based; details: nih3t3; Not Active = under 50% inhibition at 10 µM
[5] = DRUGMATRIX: Interleukin IL-1 radioligand binding (ligand: [125I] interleukin 1beta); assay type: cell membranes, Membrane; details: nih3t3; Not Active = under 50% inhibition at 10 µM

Oc1ccccc1 [PHENOL]
Not Active: IC50 [1] | Ki [1] | IC50 [2] | Ki [2] | IC50 (Vasopressin V1a receptor) | IC50 [3] | Ki [3] | IC50 (Cytochrome P450 2D6) | Ki (Cytochrome P450 2D6) | IC50 (Nitric oxide synthase 1) | IC50 [4] | Ki [4] | IC50 [5] | Ki [5]

COC(=O)Nc1nc2ccc(Sc3ccccc3)cc2[nH]1 [FENBENDAZOLE]
Not Active: IC50 [1] | Ki [1] | IC50 [2] | Ki [2] | IC50 (Vasopressin V1a receptor) | IC50 [3] | Ki [3] | IC50 (Cytochrome P450 2D6) | Ki (Cytochrome P450 2D6) | IC50 (Nitric oxide synthase 1) | IC50 [4] | Ki [4] | IC50 [5] | Ki [5]

CNC[C@H](O)c1ccc(O)c(O)c1 [EPINEPHRINE]
Not Active: IC50 [1] | Ki [1] | IC50 [2] | Ki [2] | IC50 (Vasopressin V1a receptor) | IC50 [3] | Ki [3] | IC50 (Cytochrome P450 2D6) | Ki (Cytochrome P450 2D6) | IC50 (Nitric oxide synthase 1) | IC50 [4] | Ki [4] | IC50 [5] | Ki [5]

NC(N)=Nc1nc(CSCCC(N)=NS(N)(=O)=O)cs1 [FAMOTIDINE]
Not Active: IC50 [1] | Ki [1] | IC50 [2] | Ki [2] | IC50 (Vasopressin V1a receptor) | IC50 [3] | Ki [3] | IC50 (Cytochrome P450 2D6) | Ki (Cytochrome P450 2D6) | IC50 (Nitric oxide synthase 1) | IC50 [4] | Ki [4] | IC50 [5] | Ki [5]

Nc1ccc(C(=O)O)c(O)c1 [AMINOSALICYLIC ACID]
Not Active: IC50 [1] | Ki [1] | IC50 [2] | Ki [2] | IC50 (Vasopressin V1a receptor) | IC50 [3] | Ki [3] | IC50 (Cytochrome P450 2D6) | Ki (Cytochrome P450 2D6) | IC50 (Nitric oxide synthase 1) | IC50 [4] | Ki [4] | IC50 [5] | Ki [5]

O=c1[nH]cnc2c1ncn2[C@H]1CC[C@@H](CO)O1 [DIDANOSINE]
Not Active: IC50 [1] | Ki [1] | IC50 [2] | Ki [2] | IC50 (Vasopressin V1a receptor) | IC50 [3] | Ki [3] | IC50 (Cytochrome P450 2D6) | Ki (Cytochrome P450 2D6) | IC50 (Nitric oxide synthase 1) | IC50 [4] | Ki [4] | IC50 [5] | Ki [5]

Cc1c(N)nc([C@H](CC(N)=O)NC[C@H](N)C(N)=O)nc1C(=O)N[C@H](C(=O)N[C@H](C)[C@@H](O)[C@H](C)C(=O)N[C@H](C(=O)NCCc1nc(-c2nc(C(=O)NCCC[S+](C)C)cs2)cs1)[C@@H](C)O)[C@@H](O[C@@H]1O[C@@H](CO)[C@@H](O)[C@H](O)[C@@H]1O[C@H]1O[C@H](CO)[C@@H](O)[C@H](OC(N)=O)[C@@H]1O)c1c[nH]cn1.[Br-] [BLEOMYCIN A2]
Not Active: IC50 [1] | Ki [1] | IC50 [2] | Ki [2] | IC50 (Vasopressin V1a receptor) | IC50 [3] | Ki [3] | IC50 (Cytochrome P450 2D6) | Ki (Cytochrome P450 2D6) | IC50 (Nitric oxide synthase 1) | IC50 [4] | Ki [4] | IC50 [5] | Ki [5]

O=C1c2ccccc2C(=O)C1c1ccccc1 [PHENINDIONE]
Not Active: IC50 [1] | Ki [1] | IC50 [2] | Ki [2] | IC50 (Vasopressin V1a receptor) | IC50 [3] | Ki [3] | IC50 (Cytochrome P450 2D6) | Ki (Cytochrome P450 2D6) | IC50 (Nitric oxide synthase 1) | IC50 [4] | Ki [4] | IC50 [5] | Ki [5]

C=CCO [ALLYL ALCOHOL]
Not Active: IC50 [1] | Ki [1] | IC50 [2] | Ki [2] | IC50 (Vasopressin V1a receptor) | IC50 [3] | Ki [3] | IC50 (Cytochrome P450 2D6) | Ki (Cytochrome P450 2D6) | IC50 (Nitric oxide synthase 1) | IC50 [4] | Ki [4] | IC50 [5] | Ki [5]

O=C(O)c1ccccc1 [BENZOIC ACID]
Not Active: IC50 [1] | Ki [1] | IC50 [2] | Ki [2] | IC50 (Vasopressin V1a receptor) | IC50 [3] | Ki [3] | IC50 (Cytochrome P450 2D6) | Ki (Cytochrome P450 2D6) | IC50 (Nitric oxide synthase 1) | IC50 [4] | Ki [4] | IC50 [5] | Ki [5]

C[N+](C)(C)CCOC(N)=O.[Cl-] [CARBACHOL]
Not Active: IC50 [1] | Ki [1] | IC50 [2] | Ki [2] | IC50 (Vasopressin V1a receptor) | IC50 [3] | Ki [3] | IC50 (Cytochrome P450 2D6) | Ki (Cytochrome P450 2D6) | IC50 (Nitric oxide synthase 1) | IC50 [4] | Ki [4] | IC50 [5] | Ki [5]

CC(=O)[C@]1(O)Cc2c(O)c3c(c(O)c2[C@@H](O[C@H]2C[C@H](N)[C@H](O)[C@H](C)O2)C1)C(=O)c1ccccc1C3=O [IDARUBICIN]
Not Active: IC50 [1] | Ki [1] | IC50 [2] | Ki [2] | IC50 (Vasopressin V1a receptor) | IC50 [3] | Ki [3] | IC50 (Cytochrome P450 2D6) | Ki (Cytochrome P450 2D6) | IC50 (Nitric oxide synthase 1) | IC50 [4] | Ki [4] | IC50 [5] | Ki [5]

NS(=O)(=O)c1cc(C(=O)O)c(NCc2ccco2)cc1Cl [FUROSEMIDE]
Not Active: IC50 [1] | Ki [1] | IC50 [2] | Ki [2] | IC50 (Vasopressin V1a receptor) | IC50 [3] | Ki [3] | IC50 (Nitric oxide synthase 1) | IC50 [4] | Ki [4] | IC50 [5] | Ki [5]

c1ccc2sc(SSc3nc4ccccc4s3)nc2c1 [BENZOTHIAZYL DISULFIDE]
Not Active: IC50 [1] | Ki [1] | IC50 [2] | Ki [2] | IC50 (Vasopressin V1a receptor) | IC50 [3] | Ki [3] | IC50 (Cytochrome P450 2D6) | Ki (Cytochrome P450 2D6) | IC50 (Nitric oxide synthase 1) | IC50 [4] | Ki [4] | IC50 [5] | Ki [5]

CC12CCC(CC1)C(C)(C)O2 [EUCALYPTOL]
Not Active: IC50 [1] | Ki [1] | IC50 [2] | Ki [2] | IC50 (Vasopressin V1a receptor) | IC50 [3] | Ki [3] | IC50 (Cytochrome P450 2D6) | Ki (Cytochrome P450 2D6) | IC50 (Nitric oxide synthase 1) | IC50 [4] | Ki [4] | IC50 [5] | Ki [5]

C=C(Cl)Cl [1,1-DICHLOROETHENE]
Not Active: IC50 [1] | Ki [1] | IC50 [2] | Ki [2] | IC50 (Vasopressin V1a receptor) | IC50 [3] | Ki [3] | IC50 (Cytochrome P450 2D6) | Ki (Cytochrome P450 2D6) | IC50 (Nitric oxide synthase 1) | IC50 [4] | Ki [4] | IC50 [5] | Ki [5]

Nc1ccc(Cc2ccc(N)cc2)cc1
Not Active: IC50 [1] | Ki [1] | IC50 [2] | Ki [2] | IC50 (Vasopressin V1a receptor) | IC50 [3] | Ki [3] | IC50 (Cytochrome P450 2D6) | Ki (Cytochrome P450 2D6) | IC50 (Nitric oxide synthase 1) | IC50 [4] | Ki [4] | IC50 [5] | Ki [5]

ClC1=C(Cl)[C@]2(Cl)[C@@H]3[C@@H]4C[C@@H]([C@H]5O[C@@H]45)[C@@H]3[C@@]1(Cl)C2(Cl)Cl [DIELDRIN]
Not Active: IC50 [1] | Ki [1] | IC50 [2] | Ki [2] | IC50 (Vasopressin V1a receptor) | IC50 [3] | Ki [3] | IC50 (Cytochrome P450 2D6) | Ki (Cytochrome P450 2D6) | IC50 (Nitric oxide synthase 1) | IC50 [4] | Ki [4] | IC50 [5] | Ki [5]

C[C@H]1C[C@H]2[C@@H]3CCC4=CC(=O)C=C[C@]4(C)[C@@]3(F)[C@@H](O)C[C@]2(C)[C@@]1(O)C(=O)CO [BETAMETHASONE]
Not Active: IC50 [1] | Ki [1] | IC50 [2] | Ki [2] | IC50 (Vasopressin V1a receptor) | IC50 [3] | Ki [3] | IC50 (Nitric oxide synthase 1) | IC50 [4] | Ki [4] | IC50 [5] | Ki [5]

OC[C@H]1O[C@@H]2O[C@H]3[C@H](O)[C@@H](O)[C@@H](O[C@H]4[C@H](O)[C@@H](O)[C@@H](O[C@H]5[C@H](O)[C@@H](O)[C@@H](O[C@H]6[C@H](O)[C@@H](O)[C@@H](O[C@H]7[C@H](O)[C@@H](O)[C@@H](O[C@H]8[C@H](O)[C@@H](O)[C@@H](O[C@H]1[C@H](O)[C@H]2O)O[C@@H]8CO)O[C@@H]7CO)O[C@@H]6CO)O[C@@H]5CO)O[C@@H]4CO)O[C@@H]3CO [BETADEX]
Not Active: IC50 [1] | Ki [1] | IC50 [2] | Ki [2] | IC50 (Vasopressin V1a receptor) | IC50 [3] | Ki [3] | IC50 (Cytochrome P450 2D6) | Ki (Cytochrome P450 2D6) | IC50 (Nitric oxide synthase 1) | IC50 [4] | Ki [4] | IC50 [5] | Ki [5]

CC(C)NCC(O)COc1ccc(CC(N)=O)cc1 (stereo not drawn) [ATENOLOL]
Not Active: IC50 [1] | Ki [1] | IC50 [2] | Ki [2] | IC50 (Vasopressin V1a receptor) | IC50 [3] | Ki [3] | IC50 (Nitric oxide synthase 1) | IC50 [4] | Ki [4] | IC50 [5] | Ki [5]

— ChEMBL document CHEMBL1909046, “DrugMatrix in vitro pharmacology data”
